Common to all, as to experiment: URAT1 uric acid transport activity assay
Common to all, as to assay type: cell-based

In experiment [1] the target is T1, h-M22V hURAT1 point mutant (Homo sapiens, UniProt Q96S37, M22V).
T1 construct: expressed in transfected cells; host or cells: HEK-293T
Particulars: HEPES pH 7.3, 100 μM 14C-uric acid.

Experiment [2] addresses T2, h-C351F/T354M hURAT1 double point mutant (Homo sapiens, UniProt Q96S37, C351F/T354M).
T2 construct: expressed in transfected cells; host or cells: HEK-293T
The following applies: HEPES pH 7.3, 100 μM 14C-uric acid. The essentials: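 Readout: 14C-uric acid uptake (100 μM, 10 min) in cells transiently transfected one day earlier with mutant rURAT1. Serially diluted inhibitors were added 5 min before substrate. Triplicate points, four-parameter logistic fit for IC50.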

Experiment [3] deals with T3, h-S27P hURAT1 point mutant (Homo sapiens, UniProt Q96S37, S27P).
T3 construct: expressed in transfected cells; host or cells: HEK-293T
Particulars: HEPES pH 7.3, 100 μM 14C-uric acid.

Experiment [4] concerns the target T4, h-T21A hURAT1 point mutant (Homo sapiens, UniProt Q96S37, T21A).
T4 construct: expressed in transfected cells; host or cells: HEK-293T
The following applies: HEPES pH 7.3, 100 μM 14C-uric acid.

For experiment [5], the target named is T5, h-V18L hURAT1 point mutant (Homo sapiens, UniProt Q96S37, V18L).
T5 construct: expressed in transfected cells; host or cells: HEK-293T
Particulars: HEPES pH 7.3, 100 μM 14C-uric acid.

Experiment [6] concerns the target T6, h-M29L hURAT1 point mutant (Homo sapiens, UniProt Q96S37, M29L).
T6 construct: expressed in transfected cells; host or cells: HEK-293T
The following applies: HEPES pH 7.3, 100 μM 14C-uric acid.

For experiment [7], the target named is T7, hURAT1-S35N/F365Y double point mutant (Homo sapiens, UniProt Q96S37, F365Y/S35N).
T7 construct: hURAT1 and rURAT1 are 553 amino acid proteins with 12 transmembrane segments; expressed in transfected cells; host or cells: HEK-293T

Each structure is given as a SMILES string. Several values for one entry are separate records, joined by “and”; a condition that tells them apart may be missing. Identical values can stand only once.

T7 sequence (Q96S37 whole entry S35N/F365Y): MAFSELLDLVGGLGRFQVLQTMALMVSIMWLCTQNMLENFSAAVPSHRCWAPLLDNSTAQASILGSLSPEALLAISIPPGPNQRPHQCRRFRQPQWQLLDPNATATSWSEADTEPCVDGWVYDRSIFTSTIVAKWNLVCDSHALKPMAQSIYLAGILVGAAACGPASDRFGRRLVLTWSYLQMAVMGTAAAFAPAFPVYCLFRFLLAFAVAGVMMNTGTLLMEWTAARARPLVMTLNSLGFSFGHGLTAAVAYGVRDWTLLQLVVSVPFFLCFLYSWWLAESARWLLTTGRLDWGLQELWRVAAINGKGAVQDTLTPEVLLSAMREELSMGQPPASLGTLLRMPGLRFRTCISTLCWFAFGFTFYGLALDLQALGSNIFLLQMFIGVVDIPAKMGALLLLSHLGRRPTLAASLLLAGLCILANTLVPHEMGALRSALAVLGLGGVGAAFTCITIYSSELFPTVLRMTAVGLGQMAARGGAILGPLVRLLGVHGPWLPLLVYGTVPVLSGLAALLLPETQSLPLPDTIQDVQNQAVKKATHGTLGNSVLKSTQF
T3 sequence (Q96S37 whole entry S27P): as the sequence (Q96S37 whole entry S35N/F365Y) above, with S27P, N35S, Y365F counted along it
T6 sequence (Q96S37 whole entry M29L): as the sequence (Q96S37 whole entry S35N/F365Y) above, with M29L, N35S, Y365F counted along it
T5 sequence (Q96S37 whole entry V18L): as the sequence (Q96S37 whole entry S35N/F365Y) above, with V18L, N35S, Y365F counted along it
T2 sequence (Q96S37 whole entry C351F/T354M): as the sequence (Q96S37 whole entry S35N/F365Y) above, with N35S, C351F, T354M, Y365F counted along it
T4 sequence (Q96S37 whole entry T21A): as the sequence (Q96S37 whole entry S35N/F365Y) above, with T21A, N35S, Y365F counted along it
T1 sequence (Q96S37 whole entry M22V): as the sequence (Q96S37 whole entry S35N/F365Y) above, with M22V, N35S, Y365F counted along it

For orientation: IC50 means the midpoint of a concentration-inhibition curve. As to `O=C1C(CC[S+]([O-])c2ccccc2)C(=O)N(c2ccccc2)N1c1ccccc1` (centres unmarked) [sulfinpyrazone], the IC50 in experiment [1] was 28 ± 3.1 µM; in experiment [2] it was 60 ± 5.9 µM; in experiment [3], 9.3 µM and 9 µM; in experiment [4] it was 12 ± 2.3 µM; in experiment [5], 19 ± 4.7 µM; in experiment [6] it was 8.5 µM and 9 µM.

For `O=c1[nH]c(=O)c2[nH]c(=O)[nH]c2[nH]1` [uric acid], in experiment [7] (from IC50 values), the “fold decrease in affinity of h-S35N/F365Y relative to hURAT1” value came to 3.9 fold. In addition, in experiment [7] (hURAT1-S35N/F365Y, MES pH 5.5, 100 μM 14C-uric acid), the IC50 was determined as 960 µM.

The values are drawn from paper PMC5054527, “Mechanism of high affinity inhibition of the human urate transporter URAT1” (Scientific Reports, 2016).
